Measured values as given in patent US11639350B2, “Heteroaryldihydropyrimidine derivatives and methods of treating hepatitis B infections” (Janssen Pharmaceutica NV, priority 2018, dated 2023).

Experiments:
HBV = HBV inhibitory activity: HBV DNA in the culture medium of HepG2.2.15 cells by q-PCR; assay type: cell-based; conditions: HepG2.2.15 cells, 6 days of compound treatment, HBV DNA in culture medium by q-PCR, highest concentration 10 μM; read-out: EC50
How it was run: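 HepG2.2.15 cells in 2% FBS medium, 40,000 per well, treated 6 days with compound (medium refreshed once), eight 3-fold dilutions from 10 μM top. HBV DNA extracted from culture medium and quantified by q-PCR; EC50 averaged over repeats. Cytotoxicity run in parallel at 5,000 cells per well, top 100 μM, giving CC50.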

HepG2.2.15 cells = assay: Cytotoxicity determination in HepG2.2.15 cells (CCK-8); assay type: cell-based; conditions: 6 days of compound treatment, CCK-8, highest concentration 100 μM
How it was run: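 HepG2.2.15 cells seeded at 5,000 cells/well in 2% FBS medium, incubated overnight at 37° C., then treated 6 days with compounds (8 points, 3-fold dilutions, top 100 μM), medium refreshed once midway. CCK-8 added for 2.5 h; A450 read against 630 nm reference; CC50 calculated, averaged over repeats.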

| Structure (SMILES) | EC50 (HBV) | CC50 (HepG2.2.15 cells) |
| --- | --- | --- |
| COC(=O)C1=C(C2CCN(C)C(=O)C2)NC(c2nccs2)=NC1c1ccc(F)cc1Cl (single isomer, unassigned) [Compound 1A, Methyl 4-(2-chloro-4-fluorophenyl)-6-(1-methyl-2-oxopiperidin-4-yl)-2-(thiazol-2-yl)-1,4-dihydropyrimidine-5-carboxylate] | 0.386 µM | 90.2 µM |
| CCOC(=O)C1=C([C@H]2CC[C@H](C(=O)O)CO2)NC(c2nccs2)=NC1c1ccc(F)cc1Cl (single isomer, unassigned) [Compound 363H, (trans)-6-(6-(2-Chloro-4-fluorophenyl)-5-(ethoxycarbonyl)-2-(thiazol-2-yl)-3,6-dihydropyrimidin-4-yl)tetrahydro-2H-pyran-3-carboxylic Acid] | 0.65 µM | > 100 µM |
| COC(=O)C1=C(C2CCC(NS(C)(=O)=O)C2)NC(c2nccs2)=NC1c1cccc(F)c1Cl (single isomer, unassigned) [Compound 61G, Methyl 4-(2-chloro-3-fluorophenyl)-6-(3-(methylsulfonamido)-cyclopentyl)-2-(thiazol-2-yl)-1,4-dihydropyrimidine-5-carboxylate] | 0.423 µM | > 10 µM |
| COC(=O)C1=C(C2CCC(NC(C)=O)C2)NC(c2nccs2)=NC1c1cccc(F)c1Cl (single isomer, unassigned) [Compound 62B, Methyl 6-(3-acetamidocyclopentyl)-4-(2-chloro-3-fluorophenyl)-2-(thiazol-2-yl)-1,4-dihydropyrimidine-5-carboxylate] | 0.063 µM | 22.9 µM |
| COC(=O)C1=C(C2CCC(NC(C)=O)C2)NC(c2nccs2)=NC1c1ccc(F)c(F)c1Cl (single isomer, unassigned) [Compound 300G, Methyl 6-(−3-acetamidocyclopentyl)-4-(2-chloro-3,4-difluorophenyl)-2-(thiazol-2-yl)-1,4-dihydropyrimidine-5-carboxylate] | 0.122 µM | 23.9 µM |
| COC(=O)C1=C(C2CCC(NS(C)(=O)=O)C2)NC(c2nccs2)=NC1c1cccc(F)c1Cl (single isomer, unassigned) [Compound 61B, Methyl 4-(2-chloro-3-fluorophenyl)-6-(3-(methylsulfonamido)-cyclopentyl)-2-(thiazol-2-yl)-1,4-dihydropyrimidine-5-carboxylate] | 0.333 µM | > 20 µM |
| COC(=O)C1=C(C2COC(CO)C2)NC(c2nccs2)=NC1c1cccc(F)c1Cl (single isomer, unassigned) [Compound 219C, Methyl 4-(2-chloro-3-fluorophenyl)-6-(5-(hydroxymethyl)-tetrahydrofuran-3-yl)-2-(thiazol-2-yl)-1,4-dihydropyrimidine-5-carboxylate] | 0.176 µM | 10.3 µM |
| COC(=O)C1=C(C2CCN(S(=O)(=O)CC3(C)CCC(C(=O)O)CC3)CC2)NC(c2nccs2)=NC1c1ccc(F)c(F)c1Cl (single isomer, unassigned) [Compound 452B, (trans)-4-(((4-(6-(2-Chloro-3,4-difluorophenyl)-5-(methoxycarbonyl)-2-(thiazol-2-yl)-3,6-dihydropyrimidin-4-yl)piperidin-1-yl)sulfonyl)methyl)-4-methylcyclohexanecarboxylic Acid] | 0.005 µM | 7.7 µM |
| CCOC(=O)C1=C(C2CCN(S(=O)(=O)[C@H]3C[C@H](C(=O)O)C3)CC2)NC(c2nccs2)=NC1c1ccc(F)c(F)c1C (single isomer, unassigned) [Compound 343C, (trans)-3-((4-(6-(3,4-difluoro-2-methylphenyl)-5-(ethoxycarbonyl)-2-(thiazol-2-yl)-3,6-dihydropyrimidin-4-yl)piperidin-1-yl)sulfonyl)cyclobutanecarboxylic Acid] | 0.014 µM | 25.2 µM |
| CCOC(=O)C1=C(C2CCN(S(=O)(=O)C3CC(CC(=O)O)C3)CC2)NC(c2nccs2)=NC1c1ccc(F)c(F)c1Cl (stereo not shown) [Compound 482B, 2-(3-((4-(6-(2-Chloro-3,4-difluorophenyl)-5-(ethoxycarbonyl)-2-(thiazol-2-yl)-3,6-dihydropyrimidin-4-yl)piperidin-1-yl)sulfonyl)cyclobutyl)acetic Acid] | 0.011 µM | 11.3 µM |
| COC(=O)C1=C(C2CCCN(S(C)(=O)=O)CC2)NC(c2nccs2)=NC1c1ccc(F)cc1Cl (single isomer, unassigned) [Compound 383D, Methyl 4-(2-chloro-4-fluorophenyl)-6-(1-(methylsulfonyl)azepan-4-yl)-2-(thiazol-2-yl)-1,4-dihydropyrimidine-5-carboxylate] | 0.148 µM | 31.5 µM |
| CCOC(=O)C1=C(C2CCN(S(=O)(=O)C3CC(C)(C(=O)O)C3)CC2)NC(c2nccs2)=NC1c1cccc(F)c1C (single isomer, unassigned) [Compound 429C, (trans)-3-((4-(−5-(Ethoxycarbonyl)-6-(3-fluoro-2-methylphenyl)-2-(thiazol-2-yl)-3,6-dihydropyrimidin-4-yl)piperidin-1-yl)sulfonyl)-1-methylcyclobutanecarboxylic Acid] | 0.066 µM | 25.5 µM |
| COC(=O)C1=C(C2CCN(S(=O)(=O)C3CC(C)(C(=O)O)C3)CC2)NC(c2nccs2)=NC1c1ccc(F)cc1Br (single isomer, unassigned) [Compound 410D, cis-3-((4-(6-(2-Bromo-4-fluorophenyl)-5-(methoxycarbonyl)-2-(thiazol-2-yl)-3,6-dihydropyrimidin-4-yl)piperidin-1-yl)sulfonyl)-1-methylcyclobutanecarboxylic Acid] | 0.043 µM | 23.7 µM |
| CCOC(=O)C1=C([C@H]2CCC[C@H](C(=O)O)CC2)NC(c2nccs2)=NC1c1ccc(F)c(F)c1Cl (single isomer, unassigned) [Compound 302F, (trans)-4-(−6-(2-Chloro-3,4-difluorophenyl)-5-(ethoxycarbonyl)-2-(thiazol-2-yl)-3,6-dihydropyrimidin-4-yl)cycloheptanecarboxylic Acid] | 0.037 µM | 10.3 µM |
| CCOC(=O)C1=C(C2CCN(S(=O)(=O)C3CC(C)(C(=O)O)C3)CC2)NC(c2nccs2)=NC1c1cccc(F)c1Cl (single isomer, unassigned) [Compound 321B, (cis)-3-((4-(6-(2-Chloro-3-fluorophenyl)-5-(ethoxycarbonyl)-2-(thiazol-2-yl)-3,6-dihydropyrimidin-4-yl)piperidin-1-yl)sulfonyl)-1-methylcyclobutanecarboxylic Acid] | 0.06 µM | 15.8 µM |
| CCOC(=O)C1=C(C2CCN(S(=O)(=O)C3CC(C)(C(=O)O)C3)CC2)NC(c2nccs2)=NC1c1cccc(F)c1Br (single isomer, unassigned) [Compound 414D, (cis)-3-((4-(6-(2-Bromo-3-fluorophenyl)-5-(ethoxycarbonyl)-2-(thiazol-2-yl)-3,6-dihydropyrimidin-4-yl)piperidin-1-yl)sulfonyl)-1-methylcyclobutanecarboxylic Acid] | 0.039 µM | 16.3 µM |
| CCOC(=O)C1=C(C2CCN(S(=O)(=O)C3CC(C)(C(=O)O)C3)CC2)NC(c2nccs2)=NC1c1ccc(F)cc1Br (single isomer, unassigned) [Compound 282C, (trans)-3-((4-(−6-(2-Bromo-4-fluorophenyl)-5-(ethoxycarbonyl)-2-(thiazol-2-yl)-3,6-dihydropyrimidin-4-yl)piperidin-1-yl)sulfonyl)-1-methylcyclobutanecarboxylic Acid] | 0.015 µM | 15.7 µM |
